A short description of data set [1]: Cytotoxicity (method not described). Format: cell-based.
A further data set concerns IL-12. The data set is described as follows: DENV2 infection in AG129 mice: plasma IL-12 (ELISA). Conditions: 10 mg/kg I.P, b.i.d; n = 9; vs vehicle control. Format: in vivo. The method, then: Administration of compounds and vehicle to animals started twenty four hours before infection (Day −1). Animals were treated daily (From Day-1 to day 4) as per the experimental design shown below in table 3.1.5. Animals were monitored for general clinical signs, morbidity and mortality. Body weights were measured daily.
Cytokine levels (TNF alpha, IL-6 and IL-12) in plasma samples were measured using Enzyme-Linked Immunosorbent Assay (ELISA). Mouse TNF alpha ELISA Kit (Abcam: ab208348), Mouse IL-6 ELISA Kit (Abcam: ab100712), and Mouse IL-12 p40+IL-12 p70 ELISA Kit (Abcam: ab100699) were used to estimate TNF alpha, IL-6 and IL-12, respectively. The assays were performed according to the manufacturer's instructions and was analysed on a TECAN-NanoQuant Plate™ system.
The Mean±SD Log10PFU/ml, relative Mean±SD spleen weight, Mean±SD biomarker concentrations were estimated in each group. Significant differences between group means and control were analyzed by one-way ANOVA, followed by a Dunnett's multiple comparison test, using GraphPad Prism 5 at 95% confidence levels. A p value of <0.05 was considered as significant.
(In general: An ELISA detects its analyte on a solid surface through an enzyme-linked reagent.)

In another data set the target is human Thrombin (Homo sapiens, UniProt P00734). The data set is described as follows: Selectivity screening, human serine protease thrombin. It counts as biochemical. Conditions: at 5 μM; read-out: inhibition of human Thrombin.
The next data set addresses human Trypsin (Homo sapiens, UniProt P07477). Put plainly: Selectivity screening, human serine protease trypsin. It counts as biochemical. Conditions: read-out: inhibition of human Trypsin. A digest of the protocol: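 Active candidates were counter-screened for selectivity against the human serine protease trypsin in a biochemical assay similar to the flavivirus protease assay. Cleavage of a substrate by protease activity raises fluorescence, which is read on a microtiter fluorescence plate reader. Compounds are diluted from 10 mM DMSO stocks and tested in triplicate, and inhibition of trypsin is reported.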

The values that follow come from patent publication US20250059231A1, “Protease inhibitors” (priority 2021, published 2025).

Where a SMILES comes first, the peptide text is derived from it. The star is where a group is joined. Palmitoyl = CCCCCCCCCCCCCCCC(=O)*

As for `CCCCCCCCCCCCCCCC(=O)N[C@@H](CCCCN)CC(=O)N[C@@H](C)C(=O)N[C@@H](C)CC(=O)N[C@H](CCCCN)C(N)=O` (stereo in doubt) [compound 113], in data set [1], the cytotoxicity entry is on record as “minimal cytotoxicity”. For the same compound, the EC50 (commonly the midpoint of the concentration-response curve) in the data set on ZIKV was at most 10 µM. The “Plasma concentration of IL-12 in mouse plasma after treatment” value with IL-12 was determined as 81.79 ± 14.30.

Turning to `CCCCCCCCCCCCCCCC(=O)N[C@@H](CCCNC(=N)N)C(=O)N[C@@H](CCC(N)=O)C(=O)N[C@@H](Cc1ccccc1)C(N)=O` [compound 43] (Palmitoyl-Arg-Gln-Phe-NH2), the results for the inhibition at 5 µM on human Thrombin and at human Trypsin (at 5 μM) were under 5% and under 10%, respectively. Moreover, the inhibition (in general, the relative decrease from the control value, in per cent) at 25 µM on human Trypsin (at 25 μM) was under 20%.
